# Laboratory results published in patent publication US20240398828A1, “HETERO-ATOM CONTAINING COMPOUNDS AND USES THEREOF” (Kumquat Biosciences Inc., priority 2021, published 2024).
# pIC50: −log10 of the molar value.
# Key:
# PTPN2 (i.e., TC-PTP) = target: T1, PTPN2 (i.e., TC-PTP) (Homo sapiens, UniProt P17706); assay: Phosphatase activity assay (DiFMUP substrate), PTPN2; assay type: biochemical; conditions: compounds binned ≤1 uM or >1 uM
# T1 sequence (P17706 1-415): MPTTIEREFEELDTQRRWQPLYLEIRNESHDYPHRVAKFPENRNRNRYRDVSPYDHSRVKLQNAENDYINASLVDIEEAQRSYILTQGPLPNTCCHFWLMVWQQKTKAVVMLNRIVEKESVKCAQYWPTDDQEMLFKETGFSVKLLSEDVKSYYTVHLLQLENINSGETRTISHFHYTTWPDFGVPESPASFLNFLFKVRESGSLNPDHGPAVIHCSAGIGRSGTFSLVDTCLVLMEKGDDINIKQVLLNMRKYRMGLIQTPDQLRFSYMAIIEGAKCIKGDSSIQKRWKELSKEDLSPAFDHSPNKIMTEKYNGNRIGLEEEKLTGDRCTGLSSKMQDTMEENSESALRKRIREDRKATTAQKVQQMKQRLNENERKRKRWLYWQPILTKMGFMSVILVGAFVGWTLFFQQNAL
# Procedure, shortened: (§1)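 Continuous fluorogenic readout of DiFMUP dephosphorylation at room temperature, substrate set at Km for each phosphatase (about 45 μM in the PTPN2 assay). The buffer contains 1 mM DTT and 0.001% Tween-20, pH 7.5.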
# PTPN1 (i.e., PTP1B) = target: T2, PTPN1 (i.e., PTP1B) (Homo sapiens, UniProt P18031); assay: Phosphatase activity assay (DiFMUP substrate), PTP1B; assay type: biochemical; conditions: compounds binned ≤1 uM or >1 uM
# T2 sequence (P18031 1-435): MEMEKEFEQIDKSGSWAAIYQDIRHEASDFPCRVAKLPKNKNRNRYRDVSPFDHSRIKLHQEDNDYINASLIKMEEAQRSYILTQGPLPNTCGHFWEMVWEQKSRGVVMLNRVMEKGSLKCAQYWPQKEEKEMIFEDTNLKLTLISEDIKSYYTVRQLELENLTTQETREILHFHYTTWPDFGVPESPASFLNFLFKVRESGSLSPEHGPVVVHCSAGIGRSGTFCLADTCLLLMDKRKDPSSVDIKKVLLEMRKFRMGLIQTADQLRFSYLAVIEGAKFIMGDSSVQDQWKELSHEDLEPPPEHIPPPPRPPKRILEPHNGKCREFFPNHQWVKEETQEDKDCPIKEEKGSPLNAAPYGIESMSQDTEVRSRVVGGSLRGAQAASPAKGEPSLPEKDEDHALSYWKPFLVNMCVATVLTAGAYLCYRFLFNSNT
# Procedure, shortened: as §1
Structure (SMILES),"pIC50 (PTPN2 (i.e., TC-PTP))","pIC50 (PTPN1 (i.e., PTP1B))"
"O=C1CN(c2c(O)ccc(-c3cn(C4CCCC4)cn3)c2F)S(=O)(=O)N1 [Compound 302, 5-(3-(1-cyclopentyl-1H-imidazol-4-yl)-2-fluoro-6-hydroxyphenyl)-1,2,5-thiadiazolidin-3-one 1,1-dioxide]",≥ 6.00,≥ 6.00
"O=C1CN(c2c(O)ccc(-c3cn(-c4cc(F)ccc4F)cn3)c2F)S(=O)(=O)N1 [Compound 303, 5-(3-(1-(2,5-difluorophenyl)-1H-imidazol-4-yl)-2-fluoro-6-hydroxyphenyl)-1,2,5-thiadiazolidin-3-one 1,1-dioxide]",≥ 6.00,≥ 6.00
"CC1CCC(n2cc(-c3ccc(O)c(N4CC(=O)NS4(=O)=O)c3F)cn2)CC1 (centres unmarked) [Compound 304, 5-(2-fluoro-6-hydroxy-3-(1-(4-methylcyclohexyl)-1H-pyrazol-4-yl)phenyl)-1,2,5-thiadiazolidin-3-one 1,1-dioxide]",≥ 6.00,≥ 6.00
"N#C[C@H]1CC[C@H](n2cc(-c3ccc(O)c(N4CC(=O)NS4(=O)=O)c3F)cn2)CC1 [Compound 305, (1r,4r)-4-(4-(3-(1,1-dioxido-4-oxo-1,2,5-thiadiazolidin-2-yl)-2-fluoro-4-hydroxyphenyl)-1H-pyrazol-1-yl)cyclohexane-1-carbonitrile]",≥ 6.00,≥ 6.00
"O=C1CN(c2c(O)ccc(-c3cn(C4CCC(F)CC4)cn3)c2F)S(=O)(=O)N1 (centres unmarked) [Compound 306, 5-(2-fluoro-3-(1-(4-fluorocyclohexyl)-1H-imidazol-4-yl)-6-hydroxyphenyl)-1,2,5-thiadiazolidin-3-one 1,1-dioxide]",≥ 6.00,≥ 6.00
"O=C1CN(c2c(O)ccc(-c3cnn(CC4(O)CCC4)c3)c2F)S(=O)(=O)N1 [Compound 307, 5-(2-fluoro-6-hydroxy-3-(1-((1-hydroxycyclobutyl)methyl)-1H-pyrazol-4-yl)phenyl)-1,2,5-thiadiazolidin-3-one 1,1-dioxide]",≥ 6.00,≥ 6.00
"NCC1CCCN1c1cc(-c2ccc(O)c(N3CC(=O)NS3(=O)=O)c2F)[nH]n1 (centres unmarked) [Compound 308, 5-(3-(3-(2-(aminomethyl)pyrrolidin-1-yl)-1H-pyrazol-5-yl)-2-fluoro-6-hydroxyphenyl)-1,2,5-thiadiazolidin-3-one 1,1-dioxide]",≥ 6.00,≥ 6.00
"Cc1noc(C)c1Cn1cc(-c2ccc(O)c(N3CC(=O)NS3(=O)=O)c2F)cn1 [Compound 309, 5-(3-(1-((3,5-dimethylisoxazol-4-yl)methyl)-1H-pyrazol-4-yl)-2-fluoro-6-hydroxyphenyl)-1,2,5-thiadiazolidin-3-one 1,1-dioxide]",≥ 6.00,≥ 6.00
"CN1CC(n2cc(-c3ccc(O)c(N4CC(=O)NS4(=O)=O)c3F)cn2)C1 [Compound 310, 5-(2-fluoro-6-hydroxy-3-(1-(1-methylazetidin-3-yl)-1H-pyrazol-4-yl)phenyl)-1,2,5-thiadiazolidin-3-one 1,1-dioxide]",≥ 6.00,≥ 6.00
"Cn1cc(-c2ccc(O)c(N3CC(=O)NS3(=O)=O)c2Cl)cn1 [Compound 311, 5-(2-chloro-6-hydroxy-3-(1-methyl-1H-pyrazol-4-yl)phenyl)-1,2,5-thiadiazolidin-3-one 1,1-dioxide]",≥ 6.00,≥ 6.00
"C=Cc1cc(-c2ccc(O)c(N3CC(=O)NS3(=O)=O)c2F)[nH]n1 [Compound 312, 5-(2-fluoro-6-hydroxy-3-(3-vinyl-1H-pyrazol-5-yl)phenyl)-1,2,5-thiadiazolidin-3-one 1,1-dioxide]",≥ 6.00,≥ 6.00
"N#CC1(Cn2cc(-c3ccc(O)c(N4CC(=O)NS4(=O)=O)c3F)cn2)CCC1 [Compound 313, 1-((4-(3-(1,1-dioxido-4-oxo-1,2,5-thiadiazolidin-2-yl)-2-fluoro-4-hydroxyphenyl)-1H-pyrazol-1-yl)methyl)cyclobutane-1-carbonitrile]",≥ 6.00,≥ 6.00
"O=C1CN(c2c(O)ccc(-c3[nH]nc(C4CC4)c3F)c2F)S(=O)(=O)N1 [Compound 314, 5-(3-(3-cyclopropyl-4-fluoro-1H-pyrazol-5-yl)-2-fluoro-6-hydroxyphenyl)-1,2,5-thiadiazolidin-3-one 1,1-dioxide]",≥ 6.00,≥ 6.00
"O=C1CN(c2c(O)ccc(C3=CCC(NCC4CC4)CC3)c2F)S(=O)(=O)N1 (centres unmarked) [Compound 315, 5-(4′-((cyclopropylmethyl)amino)-2-fluoro-4-hydroxy-2′,3′,4′,5′-tetrahydro-[1,1′-biphenyl]-3-yl)-1,2,5-thiadiazolidin-3-one 1,1-dioxide]",≥ 6.00,≥ 6.00
"O=C1CN(c2c(O)ccc(C3=CCN(C4CC4)CC3)c2F)S(=O)(=O)N1 [Compound 316, 5-(3-(1-cyclopropyl-1,2,3,6-tetrahydropyridin-4-yl)-2-fluoro-6-hydroxyphenyl)-1,2,5-thiadiazolidin-3-one 1,1-dioxide]",≥ 6.00,≥ 6.00
"O=C1CN(c2c(O)ccc(C3=CCC(NS(=O)(=O)C4CC4)CC3)c2F)S(=O)(=O)N1 (centres unmarked) [Compound 317, N-(3′-(1,1-dioxido-4-oxo-1,2,5-thiadiazolidin-2-yl)-2′-fluoro-4′-hydroxy-2,3,4,5-tetrahydro-[1,1′-biphenyl]-4-yl)cyclopropanesulfonamide]",≥ 6.00,≥ 6.00
"O=C1CN(c2c(O)ccc(-c3cn(-c4ccc(C(F)(F)F)cc4)cn3)c2F)S(=O)(=O)N1 [Compound 318, 5-(2-fluoro-6-hydroxy-3-(1-(4-(trifluoromethyl)phenyl)-1H-imidazol-4-yl)phenyl)-1,2,5-thiadiazolidin-3-one 1,1-dioxide]",≥ 6.00,≥ 6.00
"Cn1nc(-c2ccc(O)c(N3CC(=O)NS3(=O)=O)c2F)cc1C1CC1(F)F (centres unmarked) [Compound 319, 5-(3-(5-(2,2-difluorocyclopropyl)-1-methyl-1H-pyrazol-3-yl)-2-fluoro-6-hydroxyphenyl)-1,2,5-thiadiazolidin-3-one 1,1-dioxide]",≥ 6.00,≥ 6.00
"O=C1CN(c2c(O)ccc(-c3ccc(NS(=O)(=O)C4CC4)nc3)c2F)S(=O)(=O)N1 [Compound 320, N-(5-(3-(1,1-dioxido-4-oxo-1,2,5-thiadiazolidin-2-yl)-2-fluoro-4-hydroxyphenyl)pyridin-2-yl)cyclopropanesulfonamide]",≥ 6.00,≥ 6.00
"O=C1CN(c2c(O)ccc(-c3cc(N4CCC5(CCCN5)C4)n[nH]3)c2F)S(=O)(=O)N1 (centres unmarked) [Compound 321, 5-(3-(3-(1,7-diazaspiro[4.4]nonan-7-yl)-1H-pyrazol-5-yl)-2-fluoro-6-hydroxyphenyl)-1,2,5-thiadiazolidin-3-one 1,1-dioxide]",≥ 6.00,≥ 6.00
"NC1CCN(c2cc(-c3ccc(O)c(N4CC(=O)NS4(=O)=O)c3F)[nH]n2)C1 (centres unmarked) [Compound 322, 5-(3-(3-(3-aminopyrrolidin-1-yl)-1H-pyrazol-5-yl)-2-fluoro-6-hydroxyphenyl)-1,2,5-thiadiazolidin-3-one 1,1-dioxide]",≥ 6.00,≥ 6.00
"O=C1CN(c2c(O)ccc(-c3cc(N4CC5(CCC5)C4)n[nH]3)c2F)S(=O)(=O)N1 [Compound 323, 5-(3-(3-(2-azaspiro[3.3]heptan-2-yl)-1H-pyrazol-5-yl)-2-fluoro-6-hydroxyphenyl)-1,2,5-thiadiazolidin-3-one 1,1-dioxide]",≥ 6.00,≥ 6.00
"CC1(n2cc(-c3ccc(O)c(N4CC(=O)NS4(=O)=O)c3F)cn2)CC1 [Compound 324, 5-(2-fluoro-6-hydroxy-3-(1-(1-methylcyclopropyl)-1H-pyrazol-4-yl)phenyl)-1,2,5-thiadiazolidin-3-one 1,1-dioxide]",≥ 6.00,≥ 6.00
"O=C1CN(c2c(O)ccc(-c3cn(-c4cccc(C(F)(F)F)c4)cn3)c2F)S(=O)(=O)N1 [Compound 325, 5-(2-fluoro-6-hydroxy-3-(1-(3-(trifluoromethyl)phenyl)-1H-imidazol-4-yl)phenyl)-1,2,5-thiadiazolidin-3-one 1,1-dioxide]",≥ 6.00,≥ 6.00
"O=C1CN(c2c(O)ccc(-c3cc(C4CCOC4)n[nH]3)c2F)S(=O)(=O)N1 (centres unmarked) [Compound 326, 5-(2-fluoro-6-hydroxy-3-(3-(tetrahydrofuran-3-yl)-1H-pyrazol-5-yl)phenyl)-1,2,5-thiadiazolidin-3-one 1,1-dioxide]",≥ 6.00,≥ 6.00
